Experimental data published in patent US9856290B2, “Glycopeptide compositions and uses thereof” (SUSSEX RESEARCH LABORATORIES INC., priority 2013, dated 2018).
Marks after values point to notes of the source that are not given here. The star is where a group is joined. Ac7‑β‑Mal = peracetylated β-maltose, CC(=O)OC[C@H]1O[C@@H](*)[C@H](OC(C)=O)[C@@H](OC(C)=O)[C@@H]1O[C@H]1O[C@H](COC(C)=O)[C@@H](OC(C)=O)[C@H](OC(C)=O)[C@H]1OC(C)=O; Ac4‑β‑Glc = per-acetylated β-glucose (tetraacetyl), CC(=O)OC[C@H]1O[C@@H](*)[C@H](OC(C)=O)[C@@H](OC(C)=O)[C@@H]1OC(C)=O; βGlcNAc = CC(=O)N[C@@H]1[C@@H](O)[C@H](O)[C@@H](CO)O[C@H]1*; βGlc = OC[C@H]1O[C@@H](*)[C@H](O)[C@@H](O)[C@@H]1O; Palmitoyl = CCCCCCCCCCCCCCCC(=O)*

Tests used:
[1] = system: MatTek's EpiDermFT 3D human in vitro skin model; test: Histology (hematoxylin & eosin) of 3D human in vitro skin model; format: cell-based; settings: 5 μM, 72 hours post treatment
Protocol: MatTek's EpiDermFT™ 3D human in vitro skin model was produced by MatTek Corporation (Ashland, Mass., USA). The 3D skin model is comprised of normal human epidermal keratinocytes (NHEK) and normal human dermal fibroblasts (NHDF) derived from neonatal-foreskin tissue and adult skin, respectively. […] The tissues were grown at air-liquid interface in Costar Snapwell™ single well tissue culture plate inserts with 0.4 μm pore size, 1.2 cm in diameter and 1.0 cm^2 surface area. For tissue maintenance, serum-free EFT-400-ASY media was used containing Dulbecco's Modified Eagle's Medium (DMEM), epidermal growth factor, insulin, hydrocortisone, 5 μg/mL gentamicin, 0.2 μg/ml amphotericin B and phenol red.
Tissues were rinsed twice with 1% PBS and treated with 5 μM GP003-9, reference (Pal-KTTKS, CPC Scientific, 822197), and control (DMSO, Fisher, BP231-100). At 72 hours post treatment, the tissue was fixed in 10% neutral buffered formalin overnight and transferred to 1% PBS the next day. […]
MatTek's EpiDermFT™, which is a 3D human in vitro skin model (comprised of normal human epidermal ketatinocytes and normal human dermal fibroblasts), was used to further investigate the effects of an exemplary glycosylated peptide (GP003-9 (SEQ ID NO: 6)) on human skin. […] At 72 hours post treatment, supernatants were isolated and analysed for elastin secretion. […]

[2] = system: human lung fibroblasts; settings: human lung fibroblasts in vitro; cited from earlier work
[3] = system: Human Dermal Fibroblasts (KMST-6); test: ECM ELISA assay: elastin secretion by human dermal fibroblasts; format: cell-based; settings: 5 μM; for Elastin Secretion at 48 hours: KMST-6, 48 hours; for Elastin Secretion at 48 hours / Elastin Secretion at 72 hours: % compared to control set at 100%, normalized to total protein
Summary of the method: (§1)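 KMST-6 human dermal fibroblasts treated with 5 μM compound in serum-free medium with sodium ascorbate and β-aminopropionate fumarate for 48 and 72 h. Secreted fibronectin and elastin quantified by ELISA (450 nm, 4-parameter standard curve), normalized to total cellular protein and expressed as % of DMSO control.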

[4] = system: Human Dermal Fibroblasts (KMST-6); test: Total Collagen Assay (Sirius Red Collagen Detection Kit); format: cell-based; settings: 5 μM
Protocol: KMST-6 cells (Japan Health Sciences Foundation, JCRB0433) were seeded at 7,000 cells/mL in 60 mm tissue culture treated plates (Falcon, 353002) in complete media. The complete media consisted of the following: MEM/EBSS (Hyclone, SH30024.01), 10% Heat-Inactivated FBS (Gibco, 10082-147), 1% L-Glutamine (Hyclone, SH30031.01), 1% Nucleosides (800 mg/L Adenosine, 850 mg/L Guanidine, 730 mg/L Cytidine, 730 mg/L Uridine and 240 mg/L Thymidine), 1% Penicillin/Streptomycin (HyClone, SV30010), 1% Sodium Pyruvate (HyClone, SH30239.01), 1% Non-Essential Amino Acids (Hyclone, SH30238.01) and 0.04% Gentamicin (Gibco, 15710-064). Cells were grown for 2 days prior to treatments. The cells were washed with 1×PBS (Fisher, SH30256.01) and treated with 5 μM glycopeptides (GP003-9, GP004-3, GP004-4), reference (Pal-KTTKS, CPC Scientific, 822197), and control (DMSO, Fisher, BP231-100) in serum-free media supplemented with 50 µg/mL Sodium Ascorbate (Sigma, A4034) and 80 μg/mL β-Aminopropionate Fumarate (Sigma, A3134). The treated cells were incubated at 37° C. and 5% CO2 for 48 and 72 hours. At each timepoint, media from each treatment was collected and centrifuged at 1500 RPM for 15 minutes at 4° C. The supernatant was collected and stored at −80° C. for extracellular matrix protein quantification. The following kit was used for quantification of total collagen: Sirius Red Collagen Detection Kit (Chondrex Inc., 9062). The cells were harvested and lysed with Lysis Buffer (20 mM Tris-HCl (Sigma, T1503), 137 mM NaCl (Sigma, S9888), 2 mM EDTA (Fisher, BP118), 1% IGEPAL (Sigma, 18896), 10% Glycerol (Sigma, G5516), 100 μM PMSF (Fisher, 36978) and 10 μg/mL Leupeptin (Sigma, L2884)). They were placed on a container of ice on an orbital shaker (VWR, 89032-088) for 30 minutes. The cell lysate was centrifuged at 10,000 g for 5 minutes at 4° C. The supernatant was collected and used for protein quantification (BioRad, 500-0112). […]

[5] = system: Human Dermal Fibroblasts (KMST-6); test: ECM ELISA assay: fibronectin secretion by human dermal fibroblasts; format: cell-based; settings: 5 μM; for Fibronectin secretion at 48 hours: KMST-6, 48 hours; for Fibronectin secretion at 48 hours / Fibronectin Secretion at 72 hours: % compared to control set at 100%, normalized to total protein
Summary of the method: as §1

[6] = 72 hours, versus Pal-KTTKS reference

CCCCCCCCCCCCCCCC(=O)N[C@@H](CCCCN)C(=O)N[C@H](C(=O)N[C@H](C(=O)N[C@@H](CCCCN)C(=O)N[C@@H](CO)C(=O)O)[C@@H](C)O)[C@@H](C)O[C@@H]1O[C@H](COC(C)=O)[C@@H](O[C@H]2O[C@H](COC(C)=O)[C@@H](OC(C)=O)[C@H](OC(C)=O)[C@H]2OC(C)=O)[C@H](OC(C)=O)[C@H]1OC(C)=O [GP003-9, Pal-KT(Ac7-β-Mal)TKS-OH]
effect on the histology of the 3D human skin model [1]: no detrimental effect

Lys-Thr-Thr-Lys-Ser (KTTKS; listed as Homo sapiens) [pentapeptide derived from the carboxyl-terminus of type I procollagen]
ECM proteins (synthesis of collagen types I and III and fibronectin) [2]: significantly augment the ECM proteins

Pal-KTT(Ac7-β-Mal)KS-OH (Palmitoyl-KTT(Ac7‑β‑Mal)KS-OH; SMILES CCCCCCCCCCCCCCCC(=O)N[C@@H](CCCCN)C(=O)N[C@H](C(=O)N[C@H](C(=O)N[C@@H](CCCCN)C(=O)N[C@@H](CO)C(=O)O)[C@@H](C)O[C@@H]1O[C@H](COC(C)=O)[C@@H](O[C@H]2O[C@H](COC(C)=O)[C@@H](OC(C)=O)[C@H](OC(C)=O)[C@H]2OC(C)=O)[C@H](OC(C)=O)[C@H]1OC(C)=O)[C@@H](C)O; listed as Homo sapiens) [GP004-3]
biological activity in elastin secretion compared to control ([3]; 72 hours): greater biological activity
increased elastin secretion compared to control ([3]; 72 hours, versus DMSO control): 285%
increased secretion of elastin compared to the reference peptide [3, 6]: 252%
Elastin Secretion at 48 hours [3]: 226.1%
Elastin Secretion at 72 hours ([3]; KMST-6, 72 hours): 384.7* %
ELASTIN (ECM Protein Summary Table) ([3]; KMST-6, 72 hours, control 100%): 385*^# %
increased total collagen secretion compared to control ([4]; 72 hours, versus DMSO control): 31%
increased total collagen secretion compared to the reference peptide [4, 6]: 21%
TOTAL COLLAGEN (ECM Protein Summary Table) ([4]; KMST-6, 72 hours, control 100%): 131*^# %
biological activity in fibronectin secretion compared to control ([5]; 72 hours): greater biological activity
increased fibronectin secretion compared to control ([5]; 72 hours, versus DMSO control): 68%
increased fibronectin secretion compared to reference [5, 6]: 50%
Fibronectin secretion at 48 hours [5]: 185.0* %
Fibronectin Secretion at 72 hours ([5]; KMST-6, 72 hours): 168.3* %
FIBRONECTIN (ECM Protein Summary Table) ([5]; KMST-6, 72 hours, control 100%): 168*^# %

Pal-KTTKS(β-GlcNAc)-OH (Palmitoyl-KTTKS(βGlcNAc)-OH; SMILES CCCCCCCCCCCCCCCC(=O)N[C@@H](CCCCN)C(=O)N[C@H](C(=O)N[C@H](C(=O)N[C@@H](CCCCN)C(=O)N[C@@H](CO[C@@H]1O[C@H](CO)[C@@H](O)[C@H](O)[C@H]1NC(C)=O)C(=O)O)[C@@H](C)O)[C@@H](C)O; listed as Homo sapiens) [GP002-6]
Elastin Secretion at 48 hours [3]: 150.7%
Elastin Secretion at 72 hours ([3]; KMST-6, 72 hours): 111.0%
Fibronectin secretion at 48 hours [5]: 109.7%
Fibronectin Secretion at 72 hours ([5]; KMST-6, 72 hours): 115.8%

Pal-N(Ac4-β-Glc)KTTKS-OH (Palmitoyl-N(Ac4‑β‑Glc)KTTKS-OH; listed as Homo sapiens) [GP003-7]
Elastin Secretion at 48 hours [3]: 105.0%
Elastin Secretion at 72 hours ([3]; KMST-6, 72 hours): 148.2%
Fibronectin secretion at 48 hours [5]: 139.8%
Fibronectin Secretion at 72 hours ([5]; KMST-6, 72 hours): 118.5%

Pal-N(β-Glc)KTTKS-OH (Palmitoyl-N(βGlc)KTTKS-OH; listed as Homo sapiens) [GP003-8]
Elastin Secretion at 48 hours [3]: 111.3%
Elastin Secretion at 72 hours ([3]; KMST-6, 72 hours): 146.5%
Fibronectin secretion at 48 hours [5]: 157.2%
Fibronectin Secretion at 72 hours ([5]; KMST-6, 72 hours): 126.0%
